Results reported in patent US20240390337A1, “RELA/RSH INHIBITORS FOR THE TREATMENT OR PREVENTION OF MEDICAL BIOFILMS” (DREXEL UNIVERSITY, priority 2021, published 2024).

Key:
E. coli C biofilm [1] = test: Synergistic effects of compounds and ampicillin on biofilm biomass (crystal violet); type: cell-based; details: versus antibiotic-only control; for reduction of biofilm biomass at Amp40: ampicillin 40 μg·mL−1, S3-G1A and S3-G1B 50 μM, IDR1018 5 μM; for reduction in biofilm biomass at Amp50: ampicillin 50 μg·mL−1
Procedure: Biofilm Dispersal Assays: For biofilm formation on polystyrene surfaces, flat-bottom 96-well microtiter plates (Corning Inc.) were used. […] These were allowed to grow for 24 h. The planktonic cells and medium were then aspirated, and the plates were washed twice with 1×PBS. Fresh LB with hit compounds were added to the biofilm wells. These cultures were then allowed to incubate at 37° C. overnight. Cell density were measured (OD600) using a Multiscan Go plate reader (ThermoFisher), and 30 μL Gram crystal violet (CV) (Remel; 3 g crystal violet, 50 mL isopropanol, 50 mL ethanol, 900 mL purified water) was applied for staining for 1 h. Plates were washed with water and air dried, and CV was solubilized with an ethanol:acetone (4:1) solution. The OD570 was determined from this solution, and the biofilm volume was calculated as the ratio of OD570 to OD600. Synergistic Effects of Compounds and Antibiotics: Biofilms were grown for 24, 48, or 72 h as described elsewhere herein. Planktonic cells were then removed, and biofilms were washed twice with 250 μL sterile PBS solution. Two hundred microliter aliquots of fresh LB medium with multiple concentrations of the tested compounds and ampicillin were dispensed into the wells. After 18 h of incubation at 37° C., the biofilm mass was measured as described elsewhere herein. For the AlamarBlue viability test, 4 μL of AlamarBlue (Invitrogen) was added and plates were incubated in a Biotek HT plate reader at 37° C. for 4 h. Cell viability was measured as fluorescence at 530/590 nm (excitation/emission) versus compound concentration or initial cell density.

RelA enzyme [2] = target: T1, RelA enzyme (Escherichia coli, UniProt P0AG20); test: In vitro (p)ppGpp quantification (RelA ppGpp production assay, [γ-32P]ATP, TLC); details: 20 μM compound
T1 sequence (P0AG20 whole entry): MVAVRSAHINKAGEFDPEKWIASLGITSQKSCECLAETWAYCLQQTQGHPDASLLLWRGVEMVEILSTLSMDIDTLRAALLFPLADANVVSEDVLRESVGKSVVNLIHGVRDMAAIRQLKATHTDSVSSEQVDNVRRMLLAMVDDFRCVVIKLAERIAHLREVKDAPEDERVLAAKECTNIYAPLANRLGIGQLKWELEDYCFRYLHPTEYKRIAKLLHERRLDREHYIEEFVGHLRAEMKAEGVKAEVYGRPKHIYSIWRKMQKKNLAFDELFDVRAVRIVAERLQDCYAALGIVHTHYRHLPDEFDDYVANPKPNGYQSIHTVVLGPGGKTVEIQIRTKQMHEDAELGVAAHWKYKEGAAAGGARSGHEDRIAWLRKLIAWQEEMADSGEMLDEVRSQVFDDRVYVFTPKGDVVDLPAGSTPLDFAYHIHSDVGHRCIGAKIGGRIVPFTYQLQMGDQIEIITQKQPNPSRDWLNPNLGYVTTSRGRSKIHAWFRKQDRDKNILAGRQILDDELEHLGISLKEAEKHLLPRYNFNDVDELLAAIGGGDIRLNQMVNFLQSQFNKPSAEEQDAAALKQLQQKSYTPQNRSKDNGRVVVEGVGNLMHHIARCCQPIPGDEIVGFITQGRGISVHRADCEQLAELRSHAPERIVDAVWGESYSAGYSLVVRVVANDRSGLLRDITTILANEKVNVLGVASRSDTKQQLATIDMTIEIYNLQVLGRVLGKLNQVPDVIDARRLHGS
Procedure: The direct (p)ppGpp detection in vivo and in vitro assays relied on different 32P radioactive nucleotides (γ-32P-ATP, α-32P-GTP) for use as substrates, and thin-layer chromatography (TLC) to separate the reaction products (stationary phase: polyethylenimine cellulose).
Both methods required TLC with a stationary phase of a polyethyleneimine (PEI)-cellulose plate and a mobile phase of 1 M potassium phosphate monobasic.
In vitro (p)ppGpp quantification: in vitro (p)ppGpp quantification was carried out. […] Roughly 0.4 μg of RelA protein was added to a 1.5-mL microcentrifuge tube containing a reaction mix composed of 1×PBS, 5 mM MgCl2, 0.5 mM ATP, 0.5 mM GTP, 0.5 mM GDP, and 20 μCi[γ-32P]ATP (3,000 Ci mmol-1; PerkinElmer) and varying concentrations of the compound of interest. These reactions were incubated at 37° C. for 1 h. The reactions were stopped by addition of 5 μL formic acid (88%). The reaction mixtures were then spotted on a stationary-phase polyethyleneimine (PEI)-cellulose TLC plate using potassium phosphate monobasic (1.5 M) as the mobile-phase. The plates were then dried, and the radiation levels were read using a Molecular Dynamics Storage Phosphor Screen. A Molecular Dynamics Storm 840 Phosphor imager Scanner was used to read the phosphor screen and ImageJ was used to process the images.

[3] = tested on: (p)ppGpp production in E. coli C; test: In vivo (p)ppGpp quantification in E. coli C (32P orthophosphate, serine hydroxamate, TLC); type: cell-based; details: 20 μM compound
Procedure: In vivo (p)ppGpp Quantification: In vivo (p)ppGpp quantification was carried out. One milliliter of overnight cell culture of E. coli C was placed in 1.5-mL microcentrifuge tubes and pelleted. To this pellet was added 50 μL of a reaction mixture containing 20 μCi orthophosphoric acid and 40 μM serine hydroxamate in 1×MOPS minimal medium. The cell pellet was resuspended by gentle vortexing and placed in an incubator for 1 h. Cell growth arrest and cell lysis were completed by addition of 15 μL formic acid (88%). The lysate was then centrifuged to remove any insoluble components and the supernatant was spotted on a stationary-phase PEI-cellulose TLC plate. Plates were processed and analyzed as described elsewhere herein.

P. aeruginosa PA14 [4] = tested on: P. aeruginosa PA14
Procedure: P. aeruginosa PA14 was grown overnight in LB Miller broth at 37° C. with shaking (250 rpm). […] This was then grown for 18 h at 37° C. Cells were pelleted by centrifugation. One milliliter of supernatant was collected, and 1 mL of chloroform was added to the supernatant. Layers were separated and OD690 was taken for chloroform layer (blue). OD690 was normalized to culture cell density OD600.

E. coli C biofilm [5] = test: AlamarBlue viability assay of biofilm cells, compounds plus ampicillin; type: cell-based
Procedure: Synergistic Effects of Compounds and Antibiotics: Biofilms were grown for 24, 48, or 72 h as described elsewhere herein. Planktonic cells were then removed, and biofilms were washed twice with 250 μL sterile PBS solution. Two hundred microliter aliquots of fresh LB medium with multiple concentrations of the tested compounds and ampicillin were dispensed into the wells. After 18 h of incubation at 37° C., the biofilm mass was measured as described elsewhere herein. For the AlamarBlue viability test, 4 μL of AlamarBlue (Invitrogen) was added and plates were incubated in a Biotek HT plate reader at 37° C. for 4 h. Cell viability was measured as fluorescence at 530/590 nm (excitation/emission) versus compound concentration or initial cell density.

E. coli C [6] = test: Cell growth curves (planktonic growth, OD600); details: 30 μg·mL−1
Procedure: Cell Growth Curves: The effect of the hit compounds on bacterial growth was tested by adding compounds at multiple concentrations to the bacterial culture (100× diluted overnight culture; approximately 10^7 cells) in fresh LB medium. Two hundred microliters aliquots were pipetted into 96-well plates and placed into a Biotek HT or Tecan Infinite M200 Pro plate reader for 18 h at 37° C. Plates were shaken during incubation and the optical density (OD630 or OD600) was measured every 15 min.
The effect of the hit compounds on bacterial growth was tested by adding compounds at 200 μM (with DMSO control) to the bacterial culture (100× diluted overnight culture; approximately 10^7 cells) in fresh LB medium. Two hundred microliter aliquots were pipetted into 96-well plates, which were placed into a Biotek HT or Tecan Infinite M200 Pro plate reader for 18 h at 37° C. Plates were shaken during incubation and the optical density (OD630 or OD600) was measured every 15 min.

RelA enzyme [7] = target: T1, RelA enzyme; test: Semi-HTS and IC50, in vitro RelA ppGpp production assay ([α-32P]GTP); type: biochemical, E. coli; details: for IC50: concentration gradient, in vitro radio isotope assay
Procedure: The next step of the semi-HTS was to run the 40 in silico determined compounds in an in vitro RelA assay at a relatively high concentration of 200 μM, to test if there is any effect on RelA ppGpp production using the α-32P-GTP radio isotope in vitro assay. […] From this assay, two compounds were picked to go into later assays (C14 [4.2%], C22 [13.4%]).
The follow-up assay to the semi-HTS is determination of in vitro half-maximal inhibitory concentration (IC50). In vitro IC50 is completed by a concentration gradient run on the in vitro radio isotope assay (FIG. 29B). […] C14 was originally purchased from Enamine®; however, it was later synthesized in-house as more was needed than could be purchased.
RelA enzyme was purified as described in Example 2.

Pseudomonas aeruginosa = test: Toxin production by P. aeruginosa (Example 4, FIG. 42); type: cell-based; details: read-out: EC50 of inhibition of toxin production
E. coli C biofilm [8] = test: Biofilm persistence assay with ampicillin (crystal violet); type: cell-based
Procedure: Biofilm persistence and viability were assessed with the hit compounds in combination with an antibiotic. It has been determined that sub-MICs (minimum inhibitory concentration) of antibiotic result in increased biofilm formation. Ampicillin was used in all of the assays due to its bactericidal effect. Sub-MIC concentrations of ampicillin were determined by growth measurements (OD600). […] Biofilm Persistence Assays with Ampicillin: Biofilms were grown for 24 or 48 h as described elsewhere herein. Planktonic cells were removed, and the biofilms were washed twice with 250 μL sterile PBS solution. Two hundred microliters of fresh LB medium with various concentrations of ampicillin were dispensed into the wells. After 18 h of incubation at 37° C., the volume of biofilm was measured by CV staining as described elsewhere herein.

P. aeruginosa PA14 [9] = test: Biofilm formation in P. aeruginosa PA14; type: cell-based
Procedure: (§1) Biofilm Inhibition Assays: For biofilm formation on polystyrene surfaces, flat-bottom 96-well microtiter plates (Corning Inc.) were used. […] The biofilm mass was measured by the CV staining assay described elsewhere herein.

E. coli C [10] = test: E. coli C aggregation assay; details: high salt, low temperature, amino acid starvation
Procedure: E. coli C was grown in LB Miller broth at 30° C. with shaking (250 rpm) with or without compounds. E. coli C ΔrelA mutant was also grown as a control. One milliliter of the culture was transferred to standard polypropylene spectrophotometer cuvettes to measure planktonic cells densities (OD600). Remaining cultures were vortexed ˜1 min and 1 mL was aliquoted into cuvettes to measure the total cell densities (OD600). Aggregation was calculated as a ratio of planktonic to total cell density.

E. coli C biofilm [11] = test: Biofilm inhibition assay (crystal violet); type: cell-based; details: results not shown
Procedure: Studies were conducted in 96-well high-throughput assays. In the biofilm inhibition assay, compounds were added to the wells at the beginning of the experiment. For the biofilm dispersal assay, the biofilm was allowed to grow for 24 and 48 h, the wells were washed with sterile phosphate-buffered saline (PBS), and fresh medium supplemented with the compounds was added to the wells. The amount of biofilm was measured after 24 h.
as §1

P. aeruginosa PA01 = test: Biofilm formation in P. aeruginosa PA01; type: cell-based; details: results not shown
Procedure: as §1

Row | Compound | reduction of biofilm biomass at Amp40 (E. coli C biofilm [1]) [%] | reduction in biofilm biomass at Amp50 (E. coli C biofilm [1]) [%] | reduction of ppGpp production compared to untreated sample, in vitro assay (RelA enzyme [2]) [%] | reduction in ppGpp production, in vivo assay [3] | effect on pyocyanin production (P. aeruginosa PA14 [4]) | IC50 (RelA enzyme [7]) [µM] | further results
1 | IDR1018 [reference compound] | 75.4 | 65.2 |  |  |  |  | 
2 | CC(C)C(=O)Nc1nc2c(ncn2[C@H]2C[C@H](OC(=O)NCC(=O)NCC(=O)O)[C@@H](COC(=O)NCC(=O)NCC(=O)O)O2)c(=O)[nH]1 [Relacin, reference compound] |  |  | 45.4 | no effect |  |  | 
3 | O=C(N[C@H](C(=O)O)c1ccc(Cl)cc1)c1cc(-c2ccc(O)cc2)n[nH]1 [Compound S3-G1A, (S)-2-(4-chrlorphenyl)-2-(3-(4-hydroxyphenyl)-1H-pyrazole-5carboxamido) acetic acid] | 97.9 | 67.9 | 71.7 | 31.4% | small effect |  | reduction of cell viability (AlamarBlue) at Amp30 (E. coli C biofilm [5]; ampicillin 30 μg·mL−1, compound 50 μM): 55.4%; decrease of cell viability (AlamarBlue) at higher concentrations of antibiotic (E. coli C biofilm [5]; higher concentrations of ampicillin (not specified)): 29.2%; effect on planktonic growth rate / bacterial growth (E. coli C [6]): no effect
4 | O=C(O)Cn1cc(C[C@H]2NC(=O)NC2=O)nn1 [Compound C14] |  |  |  |  |  | 54 | EC50 (Pseudomonas aeruginosa): 0.0395 µM
5 | CC1(C)S[C@@H]2[C@H](NC(=O)[C@H](N)c3ccccc3)C(=O)N2[C@H]1C(=O)O [Ampicillin] |  |  |  |  |  |  | ampicillin concentration with the highest biofilm biomass (E. coli C biofilm [8]): 80 µg/mL; effect on amount of biofilm (E. coli C biofilm [8]): significantly increased the amount of biofilm
6 | O=C(O)CCNC(=O)c1cccc(-n2cc(Br)cn2)c1 [Compound C22, 3-(3-(4-bromo-1H-pyrazol-1-yl)benzamido)propanoic acid] |  |  |  |  | produced an effect, it never reached the level of C14 | 93 | biofilm formation compared to the DMSO control (P. aeruginosa PA14 [9]): reduced biofilm formation but not significantly; E. coli C aggregation (E. coli C [10]): slightly absent; ppGpp production relative to the untreated control (set at 100%) (RelA enzyme [7]; 200 μM compound): 13.4%; effect on biofilm formation (E. coli C biofilm [11]): little effect; effect on biofilm formation (P. aeruginosa PA01): little effect
